We go through seven molecules from ChEMBL document CHEMBL1147590, “Synthesis and antitumor activity of s-tetrazine derivatives” (Bioorg Med Chem Lett, 2004).

The structures appear in SMILES notation.

The test system of one test is A549. Put plainly: In vitro rate of inhibition of A-549 tumor cell growth at 10E-5 mol/L. It is filed as functional, Homo sapiens. To be noted: at 10 µM.
For `CC(=O)N1N=C(c2ccccc2)NN=C1c1ccccc1`, the Rate of inhibition amounted to 0%.
Same read-out and setting: next, `CCCCCCCCCCCCC/C=C/[C@@H](O)[C@H](CO)NC(C)=O`: 9.2%; `c1ccc(Cc2nnc(Cc3ccccc3)nn2)cc1`: 61.7%; `CCCC1=NN(C(=O)OCCC(C)C)C(CCC)N=N1` (stereo not given): 0%.
Take `CCCC1NN(C(C)=O)C(CCC)NN1C(C)=O` (stereo not given): the Rate of inhibition stood at 8.6%.
On the same count and under the same terms, the same measure for `C1=CN(c2nnc(N3C=CN=CC3)nn2)CC=N1`: 3.9%; for `COc1ccc(NC(=O)N2N=C(C)N(C(=O)Nc3ccc(OC)cc3)N=C2C)cc1`: 0.9%.

The subject of another test is P388. Put plainly: In vitro rate of inhibition of P388 tumor cell growth at 10E-6 mol/L. It is filed as functional, Mus musculus. To be noted: at 1 µM.
`CC(=O)N1N=C(c2ccccc2)NN=C1c1ccccc1` returned a Rate of inhibition of 6.6%.
`CCCCCCCCCCCCC/C=C/[C@@H](O)[C@H](CO)NC(C)=O` showed a Rate of inhibition of 3.1%.
In turn, `c1ccc(Cc2nnc(Cc3ccccc3)nn2)cc1` came in with a Rate of inhibition of 18.5%.
In the case of `CCCC1=NN(C(=O)OCCC(C)C)C(CCC)N=N1` (stereo not given), the Rate of inhibition was found to be 6.9%.
On to `CCCC1NN(C(C)=O)C(CCC)NN1C(C)=O` (stereo not given), for which the Rate of inhibition came to 3.2%.
The same measure, in the same setting: the same measure for `C1=CN(c2nnc(N3C=CN=CC3)nn2)CC=N1`: 0%; for `COc1ccc(NC(=O)N2N=C(C)N(C(=O)Nc3ccc(OC)cc3)N=C2C)cc1`: 14.3%.

A further test concerns A549. Put plainly: In vitro rate of inhibition of A-549 tumor cell growth at 10E-4 mol/L. It is filed as functional, Homo sapiens. To be noted: at 100 µM.
With `CC(=O)N1N=C(c2ccccc2)NN=C1c1ccccc1`, the Rate of inhibition was determined as 85.1%.
`CCCCCCCCCCCCC/C=C/[C@@H](O)[C@H](CO)NC(C)=O` had a Rate of inhibition of 24.6%.
Molecule `c1ccc(Cc2nnc(Cc3ccccc3)nn2)cc1` registered a Rate of inhibition of 66.8%.
On the same count and under the same terms, next, `CCCC1=NN(C(=O)OCCC(C)C)C(CCC)N=N1` (stereo not given): 89.4%; `CCCC1NN(C(C)=O)C(CCC)NN1C(C)=O` (stereo not given): 59.8%.
Molecule `C1=CN(c2nnc(N3C=CN=CC3)nn2)CC=N1` had a Rate of inhibition of 60.6%.
Still for that read-out and setting: next, `COc1ccc(NC(=O)N2N=C(C)N(C(=O)Nc3ccc(OC)cc3)N=C2C)cc1`: 24.2%.

For a further test, the system named is A549. Put plainly: In vitro rate of inhibition of A-549 tumor cell growth at 10E-8 mol/L. To be noted: at 0.01 µM. Format: functional, Homo sapiens.
In turn, `CC(=O)N1N=C(c2ccccc2)NN=C1c1ccccc1` gave a Rate of inhibition of 0%.
Same read-out and setting: the same measure for `CCCCCCCCCCCCC/C=C/[C@@H](O)[C@H](CO)NC(C)=O`: 12.3%; for `c1ccc(Cc2nnc(Cc3ccccc3)nn2)cc1`: 0%; for `CCCC1=NN(C(=O)OCCC(C)C)C(CCC)N=N1` (stereo not given): 0%.
The same measure, in the same setting: next, `CCCC1NN(C(C)=O)C(CCC)NN1C(C)=O` (stereo not given): 0%; `C1=CN(c2nnc(N3C=CN=CC3)nn2)CC=N1`: 0%.
The molecule `COc1ccc(NC(=O)N2N=C(C)N(C(=O)Nc3ccc(OC)cc3)N=C2C)cc1` returned a Rate of inhibition of 0%.

In another test the test system is P388. As to the kind of experiment: In vitro rate of inhibition of P388 tumor cell growth at 10E-5 mol/L. It is filed as functional, Mus musculus. The note with it: at 10 µM.
On to `CC(=O)N1N=C(c2ccccc2)NN=C1c1ccccc1`, for which the Rate of inhibition was determined as 10.9%.
Same read-out and setting: the same measure for `CCCCCCCCCCCCC/C=C/[C@@H](O)[C@H](CO)NC(C)=O`: 4.7%.
Same read-out and setting: the same measure for `c1ccc(Cc2nnc(Cc3ccccc3)nn2)cc1`: 15.6%; for `CCCC1=NN(C(=O)OCCC(C)C)C(CCC)N=N1` (stereo not given): 14.3%.
For `CCCC1NN(C(C)=O)C(CCC)NN1C(C)=O` (stereo not given), the Rate of inhibition is given as 5.5%.
Same read-out and setting: the same measure for `C1=CN(c2nnc(N3C=CN=CC3)nn2)CC=N1`: 0%.
Take `COc1ccc(NC(=O)N2N=C(C)N(C(=O)Nc3ccc(OC)cc3)N=C2C)cc1`: the Rate of inhibition was found to be 36.5%.

Another test has as its system P388. As to the kind of experiment: In vitro rate of inhibition of P388 tumor cell growth at 10E-7 mol/L. It is filed as functional, Mus musculus. To be noted: at 0.1 µM.
`CC(=O)N1N=C(c2ccccc2)NN=C1c1ccccc1` gave a Rate of inhibition of 5.5%.
On to `CCCCCCCCCCCCC/C=C/[C@@H](O)[C@H](CO)NC(C)=O`, for which the Rate of inhibition was found to be 3.1%.
As to `c1ccc(Cc2nnc(Cc3ccccc3)nn2)cc1`, the Rate of inhibition is given as 4.6%.
`CCCC1=NN(C(=O)OCCC(C)C)C(CCC)N=N1` (stereo not given) came in with a Rate of inhibition of 7.3%.
The molecule `CCCC1NN(C(C)=O)C(CCC)NN1C(C)=O` (stereo not given) had a Rate of inhibition of 3.1%.
The same measure, in the same setting: next, `C1=CN(c2nnc(N3C=CN=CC3)nn2)CC=N1`: 0%; `COc1ccc(NC(=O)N2N=C(C)N(C(=O)Nc3ccc(OC)cc3)N=C2C)cc1`: 6.3%.

A further test deals with P388. Put plainly: In vitro rate of inhibition of P388 tumor cell growth at 10E-8 mol/L. Format: functional, Mus musculus. The note with it: at 0.01 µM.
Regarding `CC(=O)N1N=C(c2ccccc2)NN=C1c1ccccc1`, the Rate of inhibition is listed as 9.2%.
`CCCCCCCCCCCCC/C=C/[C@@H](O)[C@H](CO)NC(C)=O` yielded a Rate of inhibition of 0%.
Molecule `c1ccc(Cc2nnc(Cc3ccccc3)nn2)cc1` had a Rate of inhibition of 0%.
On to `CCCC1=NN(C(=O)OCCC(C)C)C(CCC)N=N1` (stereo not given), for which the Rate of inhibition was 9.9%.
Same read-out and setting: next, `CCCC1NN(C(C)=O)C(CCC)NN1C(C)=O` (stereo not given): 0%; `C1=CN(c2nnc(N3C=CN=CC3)nn2)CC=N1`: 0%.
Still for that read-out and setting: next, `COc1ccc(NC(=O)N2N=C(C)N(C(=O)Nc3ccc(OC)cc3)N=C2C)cc1`: 0%.

The subject of another test is P388. As to the kind of experiment: In vitro rate of inhibition of P388 tumor cell growth at 10E-4 mol/L. To be noted: at 100 µM. Format: functional, Mus musculus.
Consider `CC(=O)N1N=C(c2ccccc2)NN=C1c1ccccc1`, for which the Rate of inhibition was determined as 62.7%.
On the same count and under the same terms, next, `CCCCCCCCCCCCC/C=C/[C@@H](O)[C@H](CO)NC(C)=O`: 73.4%.
The same measure, in the same setting: next, `c1ccc(Cc2nnc(Cc3ccccc3)nn2)cc1`: 51%.
The same measure, in the same setting: next, `CCCC1=NN(C(=O)OCCC(C)C)C(CCC)N=N1` (stereo not given): 83.5%.
`CCCC1NN(C(C)=O)C(CCC)NN1C(C)=O` (stereo not given): the Rate of inhibition came out at 38.5%.
Still for that read-out and setting: next, `C1=CN(c2nnc(N3C=CN=CC3)nn2)CC=N1`: 69.9%; `COc1ccc(NC(=O)N2N=C(C)N(C(=O)Nc3ccc(OC)cc3)N=C2C)cc1`: 73%.

The next test has as its system A549. Put plainly: In vitro rate of inhibition of A-549 tumor cell growth at 10E-6 mol/L. It is filed as functional, Homo sapiens. The note with it: at 1 µM.
With `CC(=O)N1N=C(c2ccccc2)NN=C1c1ccccc1`, the Rate of inhibition turned out to be 0%.
The molecule `CCCCCCCCCCCCC/C=C/[C@@H](O)[C@H](CO)NC(C)=O` showed a Rate of inhibition of 6.2%.
Same read-out and setting: next, `c1ccc(Cc2nnc(Cc3ccccc3)nn2)cc1`: 4.3%.
The same measure, in the same setting: next, `CCCC1=NN(C(=O)OCCC(C)C)C(CCC)N=N1` (stereo not given): 0%; `CCCC1NN(C(C)=O)C(CCC)NN1C(C)=O` (stereo not given): 4%; `C1=CN(c2nnc(N3C=CN=CC3)nn2)CC=N1`: 0%.
Still for that read-out and setting: the same measure for `COc1ccc(NC(=O)N2N=C(C)N(C(=O)Nc3ccc(OC)cc3)N=C2C)cc1`: 0%.

The test system of the next test is A549. As to the kind of experiment: In vitro rate of inhibition of A-549 tumor cell growth at 10E-7 mol/L. Format: functional, Homo sapiens. To be noted: at 0.1 µM.
Molecule `CC(=O)N1N=C(c2ccccc2)NN=C1c1ccccc1` yielded a Rate of inhibition of 0%.
Consider `CCCCCCCCCCCCC/C=C/[C@@H](O)[C@H](CO)NC(C)=O`, for which the Rate of inhibition was found to be 7.7%.
The same measure, in the same setting: the same measure for `c1ccc(Cc2nnc(Cc3ccccc3)nn2)cc1`: 0%; for `CCCC1=NN(C(=O)OCCC(C)C)C(CCC)N=N1` (stereo not given): 0%.
Still for that read-out and setting: the same measure for `CCCC1NN(C(C)=O)C(CCC)NN1C(C)=O` (stereo not given): 1.2%; for `C1=CN(c2nnc(N3C=CN=CC3)nn2)CC=N1`: 0%; for `COc1ccc(NC(=O)N2N=C(C)N(C(=O)Nc3ccc(OC)cc3)N=C2C)cc1`: 0%.
